Biological target: T1, human TRPA1 (Homo sapiens, UniProt O75762)
T1 construct: expressed in transfected cells; host or cells: CHO cells
Assay: TRPA1 FLIPR Tetra calcium influx assay in CHO cells (block of cinnamaldehyde-induced calcium influx)
Type: cell-based
Settings: Table 1; CHO cells expressing TRPA1; agonist cinnamaldehyde 75 uM; with vs without substituent at R2/R3; read-out: hTRPA1 CHO Ca2+ AUC EVO (IC50)
Method: IC50s (effective concentration) of compounds on the human and rat TRPA1 channels were determined using a FLIPR Tetra instrument. CHO cells expressing TRPA1 were plated into 384-well plates, incubated overnight at 37 C, and loaded with BD calcium indicator dye for 1 hr at 37° C. followed by 15 minutes at room temperature. The assay buffer was Hank's Balanced Salt Solution (HBSS) containing 20 mM HEPES (pH readjusted to 7.4) along with 0.02% BSA.
Following dye load and plate cool down, compounds were added to the cells using FLIPR Tetra. Plates were then incubated with compounds for 20 minutes at room temperature prior to adding agonist. Following this incubation, ˜EC80 concentration of cinnamaldehyde (75 uM for human TRPA1 and 45 uM for rat TRPA1) was added to active the channels and block of cinnamaldehyde induced calcium influx was measured.
IC50s were fit with a standard Hill function, keeping the Hill coefficient (n) fixed to 1.5. Fixing the Hill coefficient will generally reduce variability of the IC50 determination. The IC50s were individually examined to make sure the MIN and MAX points were set correctly prior to validation of the results.

T1 sequence (O75762 whole entry): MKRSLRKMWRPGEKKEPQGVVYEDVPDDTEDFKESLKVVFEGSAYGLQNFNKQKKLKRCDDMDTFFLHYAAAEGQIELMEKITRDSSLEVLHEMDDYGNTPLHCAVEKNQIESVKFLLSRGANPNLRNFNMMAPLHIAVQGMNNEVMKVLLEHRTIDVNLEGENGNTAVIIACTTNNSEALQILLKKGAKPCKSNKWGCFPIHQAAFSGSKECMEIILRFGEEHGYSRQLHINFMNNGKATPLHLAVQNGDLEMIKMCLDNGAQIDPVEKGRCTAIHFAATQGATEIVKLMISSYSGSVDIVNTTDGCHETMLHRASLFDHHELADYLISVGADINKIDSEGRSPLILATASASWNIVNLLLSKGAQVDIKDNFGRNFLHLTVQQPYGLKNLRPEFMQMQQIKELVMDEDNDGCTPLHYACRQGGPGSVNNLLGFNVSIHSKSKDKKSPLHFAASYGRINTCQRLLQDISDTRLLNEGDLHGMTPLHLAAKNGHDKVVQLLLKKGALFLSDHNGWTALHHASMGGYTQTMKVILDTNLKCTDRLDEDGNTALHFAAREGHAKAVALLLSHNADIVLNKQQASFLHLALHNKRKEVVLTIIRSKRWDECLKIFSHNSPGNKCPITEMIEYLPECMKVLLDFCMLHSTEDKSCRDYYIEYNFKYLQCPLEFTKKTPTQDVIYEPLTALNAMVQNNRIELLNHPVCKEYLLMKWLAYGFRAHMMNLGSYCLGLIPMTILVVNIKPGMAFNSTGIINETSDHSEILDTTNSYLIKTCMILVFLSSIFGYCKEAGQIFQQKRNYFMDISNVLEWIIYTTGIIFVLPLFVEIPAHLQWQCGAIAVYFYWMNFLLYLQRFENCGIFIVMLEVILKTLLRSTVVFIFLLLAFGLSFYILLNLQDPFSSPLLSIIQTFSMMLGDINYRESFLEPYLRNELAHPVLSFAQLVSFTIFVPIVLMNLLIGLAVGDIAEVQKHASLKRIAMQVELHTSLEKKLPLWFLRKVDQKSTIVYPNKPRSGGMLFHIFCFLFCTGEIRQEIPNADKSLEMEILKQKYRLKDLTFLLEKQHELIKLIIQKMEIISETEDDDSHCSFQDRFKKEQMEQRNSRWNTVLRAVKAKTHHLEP

IC50 [nM] | Structure (SMILES)
129 | O=C(NCc1ccnc(-c2cnc(C(F)(F)F)nc2)c1)[C@@H]1C[C@@H](F)CN1S(=O)(=O)c1ccc(F)cc1 [(2S,4R)-4-fluoro-1-(4-fluorophenyl)sulfonyl-N-[[2-[2-(trifluoromethyl)pyrimidin-5-yl]-4-pyridyl]methyl]pyrrolidine-2-carboxamide, reference compound]
26.7 | O=C(NCc1cc(-c2cnc(C(F)(F)F)nc2)ncc1F)[C@@H]1C[C@@H](F)CN1S(=O)(=O)c1ccc(F)cc1 [(2S,4R)-4-fluoro-1-(4-fluorophenyl)sulfonyl-N-[[5-fluoro-2-[2-(trifluoromethyl)pyrimidin-5-yl]-4-pyridyl]methyl]pyrrolidine-2-carboxamide, reference compound]
251 | O=C(NCc1cc(-c2cnc(C(F)(F)F)nc2)ncn1)[C@@H]1C[C@@H](F)CN1S(=O)(=O)c1ccc(F)cc1 [(2S,4R)-4-fluoro-1-(4-fluorophenyl)sulfonyl-N-[[6-[2-(trifluoromethyl)pyrimidin-5-yl]pyrimidin-4-yl]methyl]pyrrolidine-2-carboxamide, reference compound]
42.2 | O=C(NCc1cc(-c2cnc(C(F)(F)F)nc2)c(Cl)cn1)[C@@H]1C[C@@H](F)CN1S(=O)(=O)c1ccc(F)cc1 [(2S,4R)-N-[[5-chloro-4-[2-(trifluoromethyl)pyrimidin-5-yl]-2-pyridyl]methyl]-4-fluoro-1-(4-fluorophenyl)sulfonyl-pyrrolidine-2-carboxamide, reference compound]

Same assay, conditions: Table 2; CHO cells expressing TRPA1; agonist cinnamaldehyde 75 uM; 20 min compound incubation; Hill coefficient fixed to 1.5; read-out: hTRPA1 CHO Ca2+ AUC EVO (IC50)

IC50 [nM] | Structure (SMILES)
14.6 | O=C(NCc1cc(-c2cnc(C(F)(F)F)nc2)ncc1F)[C@@H]1[C@H]2C[C@H]2CN1S(=O)(=O)c1ccc(F)cc1 (single isomer, unassigned) [Example 68]
11.3 | O=C(NCc1ccc(F)c(-c2cnc(C(F)(F)F)nc2)c1)[C@H]1[C@@H]2C[C@@H]2CN1S(=O)(=O)c1ccc(F)cc1 (stereo in doubt) [Example 70, (1S,4R,5R)-3-(4-fluorophenyl)sulfonyl-N-[[4-fluoro-3-[2-(trifluoromethyl)pyrimidin-5-yl]phenyl]methyl]-3-azabicyclo[3.1.0]hexane-4-carboxamide]
14.6 | O=C(NCc1cc(-c2cnc(C(F)(F)F)nc2)ncc1F)[C@H]1[C@@H]2C[C@@H]2CN1S(=O)(=O)c1ccc(F)cc1 (stereo in doubt) [Example 79, (1S,4R,5R)-3-(4-fluorophenyl)sulfonyl-N-[[5-fluoro-2-[2-(trifluoromethyl)pyrimidin-5-yl]-4-pyridyl]methyl]-3-azabicyclo[3.1.0]hexane-4-carboxamide]
20 | C[C@H]1[C@H](F)C[C@@H](C(=O)NCc2cc(-c3cnc(C(F)(F)F)nc3)ncc2F)N1S(=O)(=O)c1cccc(Cl)c1 (stereo in doubt) [Example 91, (2S,4R,5S)-1-(3-chlorophenyl)sulfonyl-4-fluoro-N-[[5-fluoro-2-[2-(trifluoromethyl)pyrimidin-5-yl]-4-pyridyl]methyl]-5-methyl-pyrrolidine-2-carboxamide]
8.69 | C[C@H]1[C@H](F)C[C@@H](C(=O)NCc2cc(-c3cnc(C(F)(F)F)nc3)ncc2F)N1S(=O)(=O)c1ccc(Cl)c(Cl)c1 (stereo in doubt) [Example 92, (2S,4R,5S)-1-(3,4-dichlorophenyl)sulfonyl-4-fluoro-N-[[5-fluoro-2-[2-(trifluoromethyl)pyrimidin-5-yl]-4-pyridyl]methyl]-5-methyl-pyrrolidine-2-carboxamide]
1.91 | C[C@H]1[C@H](F)C[C@@H](C(=O)NCc2cc(-c3cnc(C(F)(F)F)nc3)ncc2F)N1S(=O)(=O)c1ccc(F)cc1 [Example 1, (2S,4R,5S)-4-fluoro-N-([5-fluoro-2-[2-(trifluoromethyl)pyrimidin-5-yl]pyridin-4-yl]methyl)-1-[(4-fluorobenzene)sulfonyl]-5-methylpyrrolidine-2-carboxamide]
7.46 | C[C@H]1[C@H](C#N)C[C@@H](C(=O)NCc2cc(-c3cnc(C(F)(F)F)nc3)ccc2F)N1S(=O)(=O)c1ccc(F)cc1 [Example 2, (2S,4R,5S)-4-cyano-N-([2-fluoro-5-[2-(trifluoromethyl)pyrimidin-5-yl]phenyl]methyl)-1-[(4-fluorobenzene)sulfonyl]-5-methylpyrrolidine-2-carboxamide]
1.12 | C[C@H]1CC[C@@H](C(=O)NCc2cc(Cl)nc(-c3cnc(C(F)(F)F)nc3)c2)N1S(=O)(=O)c1ccc(F)cc1 [Example 3, (2S,5S)—N-([2-chloro-6-[2-(trifluoromethyl)pyrimidin-5-yl]pyridin-4-yl]methyl)-1-[(4-fluorobenzene)sulfonyl]-5-methylpyrrolidine-2-carboxamide]
71.2 | O=C(NCc1cc(-c2cnc(C(F)(F)F)nc2)ncn1)[C@@H]1CCC2(CC2)N1S(=O)(=O)c1ccc(F)cc1 [Example 4, (5S)-4-[(4-fluorobenzene)sulfonyl]-N-([6-[2-(trifluoromethyl)pyrimidin-5-yl]pyrimidin-4-yl]methyl)-4-azaspiro[2.4]heptane-5-carboxamide]
3.77 | C[C@H]1[C@H](F)C[C@@H](C(=O)NCc2ccc(F)c(-c3cnc(C(F)(F)F)nc3)c2)N1S(=O)(=O)c1ccc(F)cc1 [Example 5, (2S,4R,5S)-4-fluoro-1-(4-fluorophenyl)sulfonyl-N-[[4-fluoro-3-[2-(trifluoromethyl)pyrimidin-5-yl]phenyl]methyl]-5-methyl-pyrrolidine-2-carboxamide]
9.62 | COc1nn(-c2cnc(C(F)(F)F)nc2)cc1CNC(=O)[C@@H]1C[C@@H](F)[C@H](C)N1S(=O)(=O)c1ccc(F)cc1 [Example 6, (2S,4R,5S)-4-fluoro-1-(4-fluorophenyl)sulfonyl-N-[[3-methoxy-1-[2-(trifluoromethyl)pyrimidin-5-yl]pyrazol-4-yl]methyl]-5-methyl-pyrrolidine-2-carboxamide]
26.2 | C[C@H]1[C@H](F)C[C@@H](C(=O)NCc2cn(-c3cnc(C(F)(F)F)nc3)nc2C(F)F)N1S(=O)(=O)c1ccc(F)cc1 [Example 7, (2S,4R,5S)-N-[[3-(difluoromethyl)-1-[2-(trifluoromethyl)pyrimidin-5-yl]pyrazol-4-yl]methyl]-4-fluoro-1-(4-fluorophenyl)sulfonyl-5-methyl-pyrrolidine-2-carboxamide]
17.3 | C[C@H]1[C@H](F)C[C@@H](C(=O)NCc2cc(-c3cnc(C(F)(F)F)nc3)ncn2)N1S(=O)(=O)c1ccc(F)cc1 [Example 8, (2S,4R,5S)-4-fluoro-1-(4-fluorophenyl)sulfonyl-5-methyl-N-[[6-[2-(trifluoromethyl)pyrimidin-5-yl]pyrimidin-4-yl]methyl]pyrrolidine-2-carboxamide]
42.2 | O=C(NCc1cc(-c2cnc(C(F)(F)F)nc2)ncn1)[C@@H]1CC[C@H](C(F)(F)F)N1S(=O)(=O)c1ccc(F)cc1 [Example 9, (2S,5R)-1-(4-fluorophenyl)sulfonyl-5-(trifluoromethyl)-N-[[6-[2-(trifluoromethyl)pyrimidin-5-yl]pyrimidin-4-yl]methyl]pyrrolidine-2-carboxamide]
2.26 | C[C@H]1[C@H](F)C[C@@H](C(=O)NCc2cc(Cl)nc(-c3cnc(C(F)(F)F)nc3)c2)N1S(=O)(=O)c1ccc(F)cc1 [Example 10, (2S,4R,5S)-N-[[2-chloro-6-[2-(trifluoromethyl)pyrimidin-5-yl]-4-pyridyl]methyl]-4-fluoro-1-(4-fluorophenyl)sulfonyl-5-methyl-pyrrolidine-2-carboxamide]

— patent US10179782B2, “Substituted sulfonamide compounds” (Genentech, Inc., priority 2016, dated 2019)
